Laboratory results published in patent US8658591B2, “Multi-LEU peptides and analogues thereof as selective PACE4 inhibitors and effective antiproliferative agents” (priority 2008, dated 2014).

Key:
Type in all cases: biochemical
[1] = molecular target: furin (Homo sapiens, UniProt P09958); experiment: Enzyme inhibition assay, fluorogenic substrate, furin
Protocol: (§1) Enzyme inhibition assays for furin (FIG. 5D) were performed in 100 mM Hepes pH 7.5, 1 mM CaCl2, 1 mM β-mercaptoethanol, 0.5 μg/μL BSA. Assays for PC2 (FIG. 5E) were performed in 20 mM Bis-Tris pH 5,7, 1 mM CaCl2, 0.1% Brij-30. Assays for PC1/3, PC4, PACE4, PC5/6 and PC7 (FIGS. 5F, G, A, B and C respectively) were performed in 20 mM Bis-Tis pH 6.5, 1 mM CaCl2. All assays were performed with the substrate pyroGlu-Arg-[…]-Lys-Arg-methyl-coumaryl-7-amide (SEQ ID NO: 33) (PyrRTKR-MCA (SEQ ID NO: 34)) (Bachem, CA) at 100 μM for furin, PC1/3, PC4, PACE4 and PC5/6, 200 μM for PC2 and 250 μM for PC7. Assays were carried out at 37° C. for 30-60 min and real-time fluorescence was measured with an excitation wavelength of 370 nm and an emission wavelength of 460 nm using a Gemini XS™ 96-well spectrofluorometer and SoftMaxPro4™ software (Molecular Devices, CA). Inhibitory peptides were added to the enzymes at decreasing concentrations from 100 μM to 50 nM and incubated 5 minutes prior to the addition of substrate.

[2] = molecular target: T1, PC2 (Homo sapiens, UniProt P16519); experiment: Enzyme inhibition assay, fluorogenic substrate, PC2
T1 sequence (P16519 110-638): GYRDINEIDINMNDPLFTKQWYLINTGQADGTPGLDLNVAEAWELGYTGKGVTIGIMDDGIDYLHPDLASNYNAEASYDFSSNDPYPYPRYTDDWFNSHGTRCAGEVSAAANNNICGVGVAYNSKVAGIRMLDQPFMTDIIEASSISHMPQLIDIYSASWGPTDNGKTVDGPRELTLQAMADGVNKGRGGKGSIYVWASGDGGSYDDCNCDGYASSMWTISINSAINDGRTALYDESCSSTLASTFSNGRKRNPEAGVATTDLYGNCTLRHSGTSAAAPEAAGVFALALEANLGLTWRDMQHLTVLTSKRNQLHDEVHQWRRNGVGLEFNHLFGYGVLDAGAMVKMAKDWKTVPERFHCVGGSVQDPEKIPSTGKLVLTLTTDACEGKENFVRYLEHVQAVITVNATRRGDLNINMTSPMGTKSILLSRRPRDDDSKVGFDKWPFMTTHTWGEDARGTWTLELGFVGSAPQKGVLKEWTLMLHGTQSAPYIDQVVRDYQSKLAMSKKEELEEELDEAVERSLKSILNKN
Protocol: as §1

[3] = molecular target: T2, PC1/3 (Homo sapiens, UniProt P29120); experiment: Enzyme inhibition assay, fluorogenic substrate, PC1/3
T2 sequence (P29120 111-753): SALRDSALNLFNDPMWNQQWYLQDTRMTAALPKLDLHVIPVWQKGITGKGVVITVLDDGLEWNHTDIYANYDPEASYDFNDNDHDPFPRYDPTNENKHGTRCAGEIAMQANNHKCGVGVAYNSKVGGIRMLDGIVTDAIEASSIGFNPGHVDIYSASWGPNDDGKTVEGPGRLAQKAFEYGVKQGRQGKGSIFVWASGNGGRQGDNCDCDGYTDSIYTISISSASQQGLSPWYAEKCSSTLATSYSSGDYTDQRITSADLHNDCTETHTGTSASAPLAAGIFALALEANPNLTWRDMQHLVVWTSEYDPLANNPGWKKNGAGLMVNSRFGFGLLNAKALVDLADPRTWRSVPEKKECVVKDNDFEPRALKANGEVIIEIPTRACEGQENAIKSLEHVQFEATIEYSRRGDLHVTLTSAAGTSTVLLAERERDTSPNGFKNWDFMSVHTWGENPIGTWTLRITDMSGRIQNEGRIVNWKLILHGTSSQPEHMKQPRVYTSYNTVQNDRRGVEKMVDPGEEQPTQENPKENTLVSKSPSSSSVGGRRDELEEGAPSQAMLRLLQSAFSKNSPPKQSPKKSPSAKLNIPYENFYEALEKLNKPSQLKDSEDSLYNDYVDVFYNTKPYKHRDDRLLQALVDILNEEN
Protocol: as §1

[4] = molecular target: T3, PC4 (Homo sapiens, UniProt Q6UW60); experiment: Enzyme inhibition assay, fluorogenic substrate, PC4
T3 sequence (Q6UW60 114-755): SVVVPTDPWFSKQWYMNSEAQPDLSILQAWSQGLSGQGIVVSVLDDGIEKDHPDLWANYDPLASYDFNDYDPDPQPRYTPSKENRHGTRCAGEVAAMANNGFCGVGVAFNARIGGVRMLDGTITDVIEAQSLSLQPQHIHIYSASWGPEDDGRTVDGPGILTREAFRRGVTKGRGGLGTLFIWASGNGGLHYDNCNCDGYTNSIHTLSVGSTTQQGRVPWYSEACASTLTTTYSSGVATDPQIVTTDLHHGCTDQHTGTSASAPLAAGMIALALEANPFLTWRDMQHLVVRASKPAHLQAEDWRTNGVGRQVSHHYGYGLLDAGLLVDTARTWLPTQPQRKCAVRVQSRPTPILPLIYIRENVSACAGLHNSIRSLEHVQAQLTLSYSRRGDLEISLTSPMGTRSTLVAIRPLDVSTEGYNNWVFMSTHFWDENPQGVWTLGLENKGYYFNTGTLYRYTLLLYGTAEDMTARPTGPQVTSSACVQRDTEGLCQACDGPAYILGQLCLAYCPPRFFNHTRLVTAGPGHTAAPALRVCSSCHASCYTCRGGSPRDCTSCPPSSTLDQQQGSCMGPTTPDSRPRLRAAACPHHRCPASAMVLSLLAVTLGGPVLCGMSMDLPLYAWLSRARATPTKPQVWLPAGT
Protocol: as §1

Sequence of furin (P09958 108-794, species assumed): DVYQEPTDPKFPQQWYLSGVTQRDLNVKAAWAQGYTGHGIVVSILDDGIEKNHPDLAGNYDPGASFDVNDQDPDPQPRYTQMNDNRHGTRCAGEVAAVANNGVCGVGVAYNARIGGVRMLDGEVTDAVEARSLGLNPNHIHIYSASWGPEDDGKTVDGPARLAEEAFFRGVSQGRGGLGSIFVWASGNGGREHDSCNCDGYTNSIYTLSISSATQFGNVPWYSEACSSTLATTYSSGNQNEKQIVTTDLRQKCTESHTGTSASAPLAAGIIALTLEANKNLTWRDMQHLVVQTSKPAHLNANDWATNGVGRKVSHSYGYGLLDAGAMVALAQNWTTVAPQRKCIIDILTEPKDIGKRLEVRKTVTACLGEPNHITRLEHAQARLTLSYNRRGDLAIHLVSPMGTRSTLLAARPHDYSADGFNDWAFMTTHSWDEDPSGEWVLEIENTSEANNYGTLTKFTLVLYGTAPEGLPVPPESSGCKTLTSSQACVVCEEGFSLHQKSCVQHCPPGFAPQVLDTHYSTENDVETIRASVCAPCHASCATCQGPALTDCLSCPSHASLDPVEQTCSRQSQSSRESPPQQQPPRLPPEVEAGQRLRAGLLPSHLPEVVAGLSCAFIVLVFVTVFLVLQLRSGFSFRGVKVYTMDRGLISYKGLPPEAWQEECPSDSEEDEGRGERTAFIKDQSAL

RVKR [RVKR—NH2, RVKR-NH2]
poor micromolar inhibitor: inhibition potency on furin, in words [1] | inhibition potency on PC2, in words [2] | inhibition potency on PC1/3, in words [3] | inhibition potency on PC4, in words [4]
